Source: patent US6258790A, “Antisense modulation of integrin α4 expression” (Isis Pharmaceuticals, Inc., priority 1999, dated 2001)
Where “and” joins values, the source holds several entries; their conditions need not be identical. Identical values can stand only once.

Tests used:
[1] = test system: murine integrin α4 mRNA; assay: Antisense inhibition of murine integrin α4 mRNA expression in P388D (IL-1) macrophage cells (RNA gel, PCR-labeled probe); type: cell-based, mouse; conditions: Table 8; P388D (IL-1) cells; 100 nM, 3 ug/ml lipofectin
Method: Oligonucleotides were initially screened in murine P388D (IL-1) macrophage cells (American Type Culture Collection, Manassas Va.) for 4 hours at an oligonucleotide concentration of 100 nM in 3 ug/ml lipofectin.

[2] = test system: murine integrin α4; assay: Antisense inhibition of murine integrin α4 protein expression in IC-21 macrophage cells (flow cytometry, CD49d-PE); type: cell-based, mouse; conditions: for % Control (integrin α4 protein) / % Inhib (integrin α4 protein): Table 11
Method: Murine IC-21 macrophage cells (American Type Culture Collection, Manassas, Va.) were used for further study. Additional oligonucleotides were designed to target murine integrin α4. These are shown in Table 10; all 2' MOE nucleotides are shown in bold and remaining positions are 2' deoxy. All 2'-MOE cytosines in these compounds are 5' methylcytosines. IC-21 cells were seeded at 5×10^4 cell/well plates two days before assay. […] Wells were triplicates.
Cells (triplicates) were seeded at 2.5×10^4 cells/well in 24-well plates the day before treatment. Oligonucleotide concentrations were 0.2, 1, 5, 25 and 50 nM in 3 ug/ml LIPOFECTIN. Cells were harvested with 2 mM EDTA for 4 minutes, then 1 ml of 2% BSA, 0.2% azide was added per contents of each well.
IC-21 cells were treated with 0.3, 1, 3, 10 and 30 nM oligonucleotide with 3 ug/ml LIPOFECTIN for 4 hours. Cells were incubated for 24 hours, harvested with trypsin, stained with 2 ug/ml CD49d-PE and rat IgG2B as in previous examples.
These compounds were tested for ability to inhibit integrin α4 protein expression.

[3] = test system: human integrin α4; assay: Inhibition of human integrin α4 protein levels by antisense oligonucleotides (LIPOFECTIN, flow cytometry with CD49d-FITC) in A375 melanoma cells; type: cell-based; conditions: Table 24; A375 cells; lipofectin; as Example 8
[4] = test system: human integrin α4; assay: Integrin α4 protein expression in A375 cells after electroporation of oligonucleotide (flow cytometry); type: cell-based; conditions: 24 hours
Method: A375 cells were treated with ISIS 107245, 107248, 107252, 107255 and 107259 by electroporation at 175 volts, r=1, c=1000, 0.2 ml Opti-MEM, 1×10^6 cells /ml, 2 mm gap electrode using a BTX Electro Cell Manipulator 600 (Genetronics, San Diego Calif.). Oligonucleotide concentrations were 1, 3, 10 and 30 μM. Cells were harvested 24 hours after oligonucleotide treatment and strained with 2 ug/ml CD49d-FITC for flow cytometry as in the previous examples.
ISIS 107248 was compared directly to ISIS 27104 for ability to inhibit integrin α4 expression in A375 melanoma cells. Oligonucleotides were electroporated into cells as in the previous example.

[5] = IC-21 cells, 25 nM, triplicates
[6] = IC-21 cells, 25 nM, triplicates, 0.025 µM

Substance: 15603 (antisense GGATGCTTCAGGCTCTGGCC; phosphorothioate DNA, further chemistry not given here) [compound 15603]
- % Control (murine integrin α4 mRNA) [1]: 38%
- % Inhib (murine integrin α4 mRNA) [1]: 62%

Substance: 16430 (antisense GGCCACTGACCAGAGTTGCA; phosphorothioate, 2'-MOE/deoxy gapmer, further chemistry not given here) [compound 16430]
- % Control (integrin α4 protein) [2, 5]: 50%
- % Inhib (integrin α4 protein) [2, 6]: 50% and > 50%

Substance: 17045 (CCGCAGCCATGCGCTCTTGG; phosphorothioate, 2'-modified, further chemistry not given here) [compound 17045]
- % Control ([2]; Table 16, 0.3 nM): 109%
- % Control ([2]; Table 16, 1 nM): 65%
- % Inhib. ([2]; Table 16, 1 nM): 35%
- % Control ([2]; Table 16, 3 nM): 34%
- % Inhib. ([2]; Table 16, 3 nM): 66%
- % Control ([2]; Table 16, 10 nM): 12%
- % Inhib. ([2]; Table 16, 10 nM): 88%

Substance: 15601 (antisense CACGCCCCGTTTCTGTGGCC; phosphodiester, 2'-MOE, further chemistry not given here) [compound 15601]
- % Control (murine integrin α4 mRNA) [1]: 60%
- % Inhib (murine integrin α4 mRNA) [1]: 40%

Substance: 17048 (GCCGACACCCGTTCGTTCGG; phosphorothioate, 2'-modified, further chemistry not given here) [compound 17048]
- % Control ([2]; Table 16, 0.3 nM): 159%
- % Control ([2]; Table 16, 1 nM): 159%
- % Control ([2]; Table 16, 3 nM): 150%
- % Control ([2]; Table 16, 10 nM): 119%

Substance: 15602 (antisense CACGCCCCGTTTCTGTGGCC; phosphorothioate DNA, further chemistry not given here) [compound 15602]
- % Control (murine integrin α4 mRNA) [1]: 48%
- % Inhib (murine integrin α4 mRNA) [1]: 52%

Substance: 16477 (CGGACCAGTACCAGGGTTAC; phosphorothioate, 2'-deoxy, further chemistry not given here) [compound 16477]
- % Control (integrin α4 protein) [2, 5]: 96%

Substance: 107255 (antisense AAGTCTAAGACTTCTCCAGT; chemistry not given here) [compound 107255]
- % Control [3]: 36%
- % Control ([4]; Table 25, 1 nM as printed): 50.6%
- % Control ([4]; Table 25, 10 nM): 22.9%
- % Control ([4]; Table 25, 30 nM): 19.4%

Substance: 15600 (antisense CACGCCCCGTTTCTGTGGCC; phosphorothioate, 2'-MOE, further chemistry not given here) [compound 15600]
- % Control (murine integrin α4 mRNA) [1]: 93%
- % Inhib (murine integrin α4 mRNA) [1]: 07%

Substance: 15604 (antisense GGAGCGATCGTAGTGGCCAG; phosphorothioate DNA, further chemistry not given here) [compound 15604]
- % Control (murine integrin α4 mRNA) [1]: 134%

Substance: 16435 (CACCTCGCTTCCGCAGCCAT; phosphorothioate, 2'-MOE/deoxy, further chemistry not given here) [compound 16435]
- % Control (integrin α4 protein) [2, 5]: 30%
- % Inhib (integrin α4 protein) [2, 6]: 70% and > 50%

Substance: 16431 (CCGCAGCCATGCGCTCTTGG; phosphorothioate, 2'-MOE/deoxy, further chemistry not given here) [compound 16431]
- IC50 ([2]; IC-21 cells): ~1 nM
- % Control (integrin α4 protein) [2, 5]: 35%
- % Inhib (integrin α4 protein) [2, 6]: 65% and > 50%
- % Inhib. ([2]; Table 12, 0.2 nM, triplicates): 18%
- % of control ([2]; Table 12, 0.2 nM, triplicates): 82%
- % Inhib. ([2]; Table 12, 1 nM, triplicates): 43%
- % of control ([2]; Table 12, 1 nM, triplicates): 57%
- % Inhib. ([2]; Table 12, 5 nM, triplicates): 66%
- % of control ([2]; Table 12, 5 nM, triplicates): 34%
- % Inhib. ([2]; Table 12, 25 nM, triplicates): 68%
- % of control ([2]; Table 12, 25 nM, triplicates): 32%
- % Inhib. ([2]; Table 12, 50 nM, triplicates): 70%
- % of control ([2]; Table 12, 50 nM, triplicates): 30%

Substance: 15605 (antisense CCGGTGCTGGCAGGCGACAG; phosphorothioate DNA, further chemistry not given here) [compound 15605]
- % Control (murine integrin α4 mRNA) [1]: 84%
- % Inhib (murine integrin α4 mRNA) [1]: 16%

Substance: 17046 (CCGCAGCCATGCGCTCTTGG; phosphorothioate, 2'-modified, further chemistry not given here) [compound 17046]
- % Control ([2]; Table 16, 0.3 nM): 161%
- % Control ([2]; Table 16, 1 nM): 123%
- % Control ([2]; Table 16, 3 nM): 125%
- % Control ([2]; Table 16, 10 nM): 75%
- % Inhib. ([2]; Table 16, 10 nM): 25%

Substance: 16432 (CCGCAGCCATGCGCTCTTGG; phosphorothioate, 2'-MOE/deoxy, further chemistry not given here) [compound 16432]
- % Control (integrin α4 protein) [2, 5]: 53%
- % Inhib (integrin α4 protein) [2, 5]: 47%

Substance: 16434 (CACCTCGCTTCCGCAGCCAT; phosphorothioate, 2'-MOE/deoxy, further chemistry not given here) [compound 16434]
- % Control (integrin α4 protein) [2, 5]: 33%
- % Inhib (integrin α4 protein) [2, 6]: 67% and > 50%

Substance: 16437 (CGCTTCCGCAGCCATGCGCT; phosphorothioate, 2'-MOE/deoxy, further chemistry not given here) [compound 16437]
- % Control (integrin α4 protein) [2, 5]: 36%
- % Inhib (integrin α4 protein) [2, 6]: 64% and > 50%

Substance: 17047 (CCGCAGCCATGCGCTCTTGG; phosphorothioate, 2'-modified, further chemistry not given here) [compound 17047]
- % Control ([2]; Table 16, 0.3 nM): 132%
- % Control ([2]; Table 16, 1 nM): 107%
- % Control ([2]; Table 16, 3 nM): 77%
- % Inhib. ([2]; Table 16, 3 nM): 23%
- % Control ([2]; Table 16, 10 nM): 36%
- % Inhib. ([2]; Table 16, 10 nM): 67%

Substance: 107252 (antisense AAGAGTAATCATTGCTGAGA; chemistry not given here) [compound 107252]
- % Control [3]: 35%
- % Control ([4]; Table 25, 1 nM as printed): 17.4%
- % Control ([4]; Table 25, 10 nM): 7.9%
- % Control ([4]; Table 25, 30 nM): 2.9%

Substance: 107259 (antisense GGAACACAGCCCGTAGGAAA; chemistry not given here) [compound 107259]
- % Control [3]: 37%
- % Control ([4]; Table 25, 1 nM as printed): 17.7%
- % Control ([4]; Table 25, 10 nM): 42.9%
- % Control ([4]; Table 25, 30 nM): 19.4%

Substance: 16428 (antisense GGCCACTGACCAGAGTTGCA; phosphorothioate, 2'-MOE/deoxy gapmer, further chemistry not given here) [compound 16428]
- % Control (integrin α4 protein) [2, 5]: 67%
- % Inhib (integrin α4 protein) [2, 5]: 33%

Substance: 15606 (antisense GATGAAGTGCAGCAGCGTGT; phosphorothioate DNA, further chemistry not given here) [compound 15606]
- % Control (murine integrin α4 mRNA) [1]: 72%
- % Inhib (murine integrin α4 mRNA) [1]: 28%

Substance: 107245 (antisense GTTGATATAACTCCAACTGT; chemistry not given here) [compound 107245]
- % Control [3]: 35%
- % Control ([4]; Table 25, 1 nM as printed): 27.1%
- % Control ([4]; Table 25, 10 nM): 64.4%
- % Control ([4]; Table 25, 30 nM): 30.3%

Substance: 16479 (ACCTCCTCGCTCACGCGCTA; phosphorothioate DNA, further chemistry not given here) [compound 16479]
- % Control (integrin α4 protein) [2, 5]: 96%
